{"source": "ChEMBL document CHEMBL4814051", "about": "“Discovery of effective phosphodiesterase 2 inhibitors with antioxidant activities for the treatment of Alzheimer's disease” (Bioorg Med Chem Lett, 2021)", "key": {"[1]": {"test": "Antioxidant activity assessed as trolox equivalent of AAPH-induced radical scavenging activity preincubated for 15 mins followed by AAPH addition and measured every minute for 80 mins by ORAC-FL assay", "format": "functional", "conditions": "time 95.0 min"}, "[2]": {"test": "Cytotoxicity against human SH-SY5Y cells assessed as cell viability at 50 uM incubated for 48 hrs by CCK-8 method", "format": "cell-based", "conditions": "read-out: Activity"}, "[3]": {"test": "Cytotoxicity against human SH-SY5Y cells assessed as cell viability at 100 uM incubated for 48 hrs by CCK-8 method", "format": "cell-based", "conditions": "read-out: Activity"}}}
{"smiles": "Cc1nc2ccc(NCc3ccc(F)cc3)cc2n2c(-c3ccccc3Cl)nnc12", "values": [{"measurement": "Activity (Trolox equivalents)", "setting": "[1]", "value": 0.2}]}
{"smiles": "Cc1nc2ccc(NCc3cc(OC(F)(F)F)ccc3O)cc2n2c(-c3ccccc3Cl)nnc12", "values": [{"measurement": "Activity (Trolox equivalents)", "setting": "[1]", "value": 5.2}]}
{"smiles": "Cc1nc2ccc(/N=C/c3ccccc3O)cc2n2c(-c3ccccc3Cl)nnc12", "values": [{"measurement": "Activity (Trolox equivalents)", "setting": "[1]", "value": 0.3}]}
{"smiles": "Cc1nc2ccc(NCc3cc(F)ccc3O)cc2n2c(-c3ccccc3Cl)nnc12", "values": [{"measurement": "Activity (Trolox equivalents)", "setting": "[1]", "value": 8.1}]}
{"smiles": "Cc1nc2ccc(NCc3c(O)cccc3F)cc2n2c(-c3ccccc3Cl)nnc12", "values": [{"measurement": "Activity (Trolox equivalents)", "setting": "[1]", "value": 8.6}, {"measurement": "viability at 48 h, 50 µM", "setting": "[2]", "value": 23, "unit": "%"}, {"measurement": "viability at 48 h, 100 µM", "setting": "[3]", "value": 10, "unit": "%"}]}
{"smiles": "Cc1nc2ccc(NCc3ccccc3O)cc2n2c(-c3ccccc3Cl)nnc12", "values": [{"measurement": "Activity (Trolox equivalents)", "setting": "[1]", "value": 3.7}]}
{"smiles": "Cc1nc2ccc(/N=C/c3ccc(F)cc3O)cc2n2c(-c3ccccc3Cl)nnc12", "values": [{"measurement": "Activity (Trolox equivalents)", "setting": "[1]", "value": 0.2}]}
{"smiles": "Cc1nc2ccc(NCc3cc(Cl)cc(Cl)c3O)cc2n2c(-c3ccccc3Cl)nnc12", "values": [{"measurement": "Activity (Trolox equivalents)", "setting": "[1]", "value": 6.8}]}
{"smiles": "Cc1nc2ccc(NCc3ccc(Cl)cn3)cc2n2c(-c3ccccc3Cl)nnc12", "values": [{"measurement": "Activity (Trolox equivalents)", "setting": "[1]", "value": 1.9}]}
{"smiles": "Cc1nc2ccc(NCc3ccc(F)cc3O)cc2n2c(-c3ccccc3Cl)nnc12", "values": [{"measurement": "Activity (Trolox equivalents)", "setting": "[1]", "value": 8.4}, {"measurement": "viability at 48 h, 50 µM", "setting": "[2]", "value": 53, "unit": "%"}, {"measurement": "viability at 48 h, 100 µM", "setting": "[3]", "value": 39, "unit": "%"}]}
{"smiles": "Cc1nc2ccc(NCc3cc(Br)ccc3O)cc2n2c(-c3ccccc3Cl)nnc12", "values": [{"measurement": "Activity (Trolox equivalents)", "setting": "[1]", "value": 2.6}]}
{"smiles": "COc1ccc(O)c(CNc2ccc3nc(C)c4nnc(-c5ccccc5Cl)n4c3c2)c1", "values": [{"measurement": "Activity (Trolox equivalents)", "setting": "[1]", "value": 8}]}
{"smiles": "Cc1nc2ccc(NCc3ccccc3F)cc2n2c(-c3ccccc3Cl)nnc12", "values": [{"measurement": "Activity (Trolox equivalents)", "setting": "[1]", "value": 0.6}]}
{"smiles": "Cc1nc2ccc(NCc3ccccn3)cc2n2c(-c3ccccc3Cl)nnc12", "values": [{"measurement": "Activity (Trolox equivalents)", "setting": "[1]", "value": 5.5}]}
{"smiles": "COc1ccc2[nH]cc(CCNC(C)=O)c2c1", "values": [{"measurement": "Activity (Trolox equivalents)", "setting": "[1]", "value": 2}]}
{"smiles": "Cc1nc2ccc(NCc3ccc(Cl)cc3O)cc2n2c(-c3ccccc3Cl)nnc12", "values": [{"measurement": "Activity (Trolox equivalents)", "setting": "[1]", "value": 6.9}]}
{"smiles": "Cc1nc2ccc(NCc3cc(Cl)ccc3O)cc2n2c(-c3ccccc3Cl)nnc12", "values": [{"measurement": "Activity (Trolox equivalents)", "setting": "[1]", "value": 3.9}]}
